{"source": "patent US20130156753A1", "about": "(UNIVERSITY OF ROCHESTER, priority 2010, published 2013)", "key": {"HDAC5 nuclear export": {"tested_on": "HDAC5 nuclear export", "experiment": "PMA-induced GFP-HDAC5 nuclear export in Cos7 cells (fluorescence microscopy)", "type": "cell-based", "procedure": "A, B, Cos7 cells were co-transfected with expression vectors encoding GFP-tagged HDAC5 (GFP-HDAC5) and constitutively active protein kinases as indicated, and then exposed to phorbol-12-myristate-13-acetate (PMA, […]) for 3 hours. […] A-F, The cells were fixed and the subcellular localization of GFP-HDAC5 was visualized by fluorescence microscopy.\nC, D, Cos7 cells were transfected with GFP-HDAC5-WT or GFP-HDAC5-S280D and then exposed to PMA for 3 hours. GFP-HDAC5-S280D but not GFP-HDAC5-WT was resistant to PMA-induced nuclear export. *, p<0.05 versus without PMA, n=4. E, F, Cos7 cells were transfected with Flag-HDAC5-WT or Flag-HDAC5-S280A mutant, and then pretreated with forskolin followed with the exposure to PMA. Phosphorylation of HDAC5 in cell lysates was analyzed by immunoblotting with phospho-specific HDAC5 antibodies that recognize the HDAC5 phosphorylated at Ser259 (E) and Ser498 (F). G, H, Cos7 cells were transfected with Flag-HDAC5-WT, Flag-HDAC5-S280A or Flag-HDAC5-S280D, and then pretreated with forskolin, followed with the exposure to PMA. Coimmunoprecipitation of Flag-HDAC5 in cell lysates and then immunoblotting with anti-14-3-3 beta and anti-Flag antibodies in immunoprecipitates were performed. 14-3-3 in total cell lysates (5% of the input) was determined by immunoblotting with anti-14-3-3 antibodies. Representative blots are shown, n=3.\nThe cells were fixed and GFP-HDAC5 localization was analyzed by fluorescence microscopy.\nFor analysis of GFP-HDAC5 subcellular localization in NRVMs and Cos7 cells, cells were plated in the presence of adenovirus (multiplicity of infection, 50 to 100) on 35 mm dishes containing DMEM plus 10% FBS as previously described (Vega R B, et al. (2004) Protein kinases C and D mediate agonist-dependent cardiac hypertrophy through nuclear export of histone deacetylase 5. Mol Cell Biol 24(19):8374-8385).\n(§1) After 24 hour culture, cells were maintained in serum-free DMEM medium for additional 24 hours, and then exposed to various inducers or inhibitors (for 30 minutes) prior to PE or PMA stimulation for indicated times. The cells were washed with PBS and fixed with 3.7% formaldehyde in PBS. Images were captured at a magnification of ×60, using a fluorescence microscope (Olympus BX51) equipped with a digital camera and Spot software system (RT Color Diagnostic Instruments). For analysis of the myocyte marker, sarcomeric α-actinin antibody and DAPI in neonatal cardiomyocyte, immunocytochemistry were performed according to a standard protocol. For subcellular localization of endogenous HDAC5 in cardiomyocyes, we fixed cells and used the detergent Saponin (Sigma, 84510) to make cells permeable, and then performed immunocytochemistry with anti-HDAC5 antibody (Santa Cruz, sc-11419). For subcellular localization of HDAC5, total around 200 cells were counted in each condition. For cardiomyocyte size, total myocyte surface areas were calculated using NIH Image J software, and expressed as the average of 100 randomly selected cells per condition."}, "[1]": {"tested_on": "ANF, β-MHC, α-SMA expression", "experiment": "RT-PCR of cardiac fetal gene expression in NRVMs", "type": "cell-based, rat", "conditions": "PE 24 hours", "procedure": "(§2) The mRNA was extracted from the cell lysates and then RT-PCR with the primers for ANF, β-MHC, α-SMA, and GADPH (internal control) was performed. *, p<0.05 versus PE+Ad-GFP; #, p<0.05 versus PE+GFP-HDAC5-WT, n=4.\nThe mRNA was extracted from the cell lysates, and quantitative RT-PCR with the primers for ANF and GADPH (internal control) were performed as described in the Examples. Quantitative data are shown (n=4).\nTotal RNA was isolated from NRVM using TRIzol (Invitrogen Corp.). Firststrand cDNA was synthesized with the SuperScript Preamplification System (Gibco-BRL). cDNA was amplified by PCR for 30 cycle (Applied Biosystem) as described previously (4, 5). Rat GAPDH served as an internal control. The following oligonucleotide primers were used in this study: rat ANF, sense 5′-[…]-3′ (SEQ ID NO:11) and antisense 5′-[…]-3′(SEQ ID NO:12) rat α-SMA, sense 5′-[…]-3′ (SEQ ID NO:13) and antisense 5′-[…]-3′ (SEQ ID NO:14); rat β-MHC (myosin heavy chain), sense 5′-[…]-3′ (SEQ ID NO:15) and antisense 5′-[…]-3′ (SEQ ID NO:16); rat GAPDH, sense 5′-[…]-3′ (SEQ ID NO:17) and antisense 5′-[…]-3′ (SEQ ID NO:18). Experiments were repeated three times."}, "[2]": {"tested_on": "MEF2 transcriptional activity", "experiment": "3xMEF2-luciferase reporter assay in NRVMs", "type": "cell-based, rat", "conditions": "PE 24 hours", "procedure": "as §2\nTo assess MEF2 and CREB transcriptional activation, an adenovirus was used that encoded a 3×MEF2-dependent reporter gene in which three tandem repeats of MEF2 sites were located upstream of the thymidine kinase gene promoter and plasmid encoding CREB-dependent reporter gene. NRVMs or Cos7 cells cultured in 24-well were co-transfected with 3×MEF2 or CREB luciferase reporter gene and adenovirus encoding LacZ or GFP-HDAC5-WT, GFP-HDAC5-S280A mutant and GFP-HDAC5-S280D mutant. […] The luciferase activities in cell lysates were determined using the Dual-Luciferase Reporter Assay kit (Promega) and Wallac 1420 multi-label counter (PerkinElmer) as described previously (4, 5)."}, "NRVMs": {"tested_on": "NRVMs", "experiment": "Cardiomyocyte hypertrophy (cell size, α-actinin immunostaining) in NRVMs", "type": "cell-based, rat", "text": "A-H, Cardiomyocyte size was detected by immunostaining with anti-α-actinin antibody. […] The cells were fixed and analyzed for GFP-HDAC5 localization, α-actinin staining and nuclear DAPI staining *, p<0.05 versus without PE; #, p<0.05 versus with PE alone. I, Schematic model for PKA-dependent regulation of HDAC5 subcellular localization and gene transcription.\nCardiomyocyte protein marker α-actinin was detected by immunofluorescence using antibody against α-actinin and fluorescein-conjugated secondary antibody.\nas §1"}}, "data": [{"smiles": "CCCC(=O)Nc1ncnc2c1ncn2[C@@H]1O[C@@H]2COP(=O)(O)O[C@H]2[C@H]1OC(=O)CCC", "note": "[cAMP, Dibutyryl-cAMP]", "values": [{"measurement": "PMA-induced HDAC5 nuclear export", "setting": "HDAC5 nuclear export; GFP-HDAC5-WT, pretreatment, then PMA for 3 hours", "result": "totally blocked HDAC5 nuclear export"}, {"measurement": "PMA-induced nuclear export of GFP-HDAC5-S280A", "setting": "HDAC5 nuclear export; S280A mutant, cAMP pretreatment, PMA 3 hours", "result": "inhibited nuclear export of GFP-HDAC5-WT but not GFP-HDAC5-S280A"}, {"measurement": "PE-elevated expression of ANF, β-MHC and α-SMA", "setting": "[1]; NRVMs with GFP-HDAC5-WT, cAMP pretreatment", "result": "blocked this elevated gene expression"}, {"measurement": "PE-induced ANF expression (quantitative RT-PCR)", "setting": "[1]; NRVMs, cAMP 30 min", "result": "decreases PE-induced ANF expression"}, {"measurement": "decrease in MEF2 transcriptional activation with HDAC5-S280A", "setting": "[2]; NRVMs co-infected with adenoviral GFP-HDAC5-S280A", "result": "abolished the decrease in MEF2 transcriptional activation by cAMP"}, {"measurement": "PE-stimulated MEF2 transcriptional activity", "setting": "[2]; NRVMs with GFP alone or GFP-HDAC5-WT, 30 min pretreatment", "result": "significantly inhibited PE-stimulated MEF2 transcriptional activity"}, {"measurement": "size of cardiomyocytes after PE", "setting": "NRVMs; NRVMs with GFP-HDAC5-WT, cAMP 30 min, PE 24 hours", "result": "decreased the size of cardiomyocytes"}, {"measurement": "PE/Angiotensin II-induced cardiomyocyte hypertrophy", "setting": "NRVMs; NRVMs, forskolin 10 μM, cAMP 500 μM, Rolipram 10 μM 30 min, PE or Angiotensin II 24 hours", "result": "inhibit PE/Angiotensin II-induced cardiomyocyte hypertrophy"}]}]}
